According to patent US9120771B2, “Azetidine derivative and antidepressant composition including the same” (KOREA INSTITUTE OF SCIENCE AND TECHNOLOGY, priority 2011, dated 2015):
Where a name gives a salt, the structure may show the parent alone.

biological target: human norepinephrine transporter (Homo sapiens (Human), UniProt P23975); experiment: hNET binding assay ([3H]Nisoxetine); details: 10 uM; membrane from MDCK cells; read-out: hNET binding assay %-inhibition (10 uM)
Procedure: NE transporter binding assay for evaluating binding of the compound to the norepinephrine transporter was carried out using human recombinant norepinephrine transporter membrane (PerkinElmer Life and Analytical Sciences, USA) expressed in MDCK cells and radioisotope [^3H]Nisoxetine (PerkinElmer).
That is, the test drug, 6 nM [^3H]Nisoxetine, norepinephrine transporter membrane (11 ug/well), 120 mM NaCl and 50 mM Tris-HCl buffer (pH 7.4) containing 5 mM KCl were added to obtain a reaction mixture with a final volume of 0.25 ml. After incubation for 60 minutes at 4° C., the mixture was quickly passed through a Filtermat A glass fiber filter pre-soaked with 0.5% (w/v) PEI (polyethyleneimine) using Inotech Harvester (Inotech) to terminate the reaction. After washing with cold washing buffer (50 mM Tris-HCl, pH 7.4, 0.9% NaCl) solution, the filter was covered with MeltiLex and sealed in a sample bag. After drying in an oven, radioactivity was counted using MicroBeta Plus (Wallac).
Non-specific binding was measured in the presence of 1 uM desipramine. The IC50 value of the test drug was calculated from non-linear regression analysis (GraphPad Prism Program, San Diego, USA) of each %-inhibition value obtained from the drug with concentrations of 7th and 8th steps.

Chain of human norepinephrine transporter (P23975 whole entry): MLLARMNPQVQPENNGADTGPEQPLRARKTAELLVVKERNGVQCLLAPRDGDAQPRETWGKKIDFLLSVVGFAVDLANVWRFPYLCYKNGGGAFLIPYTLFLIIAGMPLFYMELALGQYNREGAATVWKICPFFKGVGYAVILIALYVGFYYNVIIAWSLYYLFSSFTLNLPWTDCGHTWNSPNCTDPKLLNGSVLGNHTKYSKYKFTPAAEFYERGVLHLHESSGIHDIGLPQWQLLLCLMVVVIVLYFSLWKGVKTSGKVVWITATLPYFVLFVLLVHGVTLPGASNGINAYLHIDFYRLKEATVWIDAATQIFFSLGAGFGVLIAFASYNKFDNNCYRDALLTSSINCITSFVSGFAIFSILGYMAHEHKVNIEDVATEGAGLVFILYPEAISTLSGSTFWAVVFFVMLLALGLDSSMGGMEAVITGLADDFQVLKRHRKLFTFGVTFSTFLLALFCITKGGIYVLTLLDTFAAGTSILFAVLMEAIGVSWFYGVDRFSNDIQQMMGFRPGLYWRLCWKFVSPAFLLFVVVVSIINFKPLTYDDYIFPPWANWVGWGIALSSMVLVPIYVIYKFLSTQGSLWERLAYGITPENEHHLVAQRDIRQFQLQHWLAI

Row | SMILES | inhibition at 10 µM [%]
1 | COC(c1ccc(Cl)cc1)C1CNC1.Cl (stereo not shown) [KHG26753, 3-((4-chlorophenyl)(methoxy)methyl)azetidine hydrochloride] | 52
2 | CCOC(c1ccc(Cl)cc1)C1CNC1.Cl (stereo not shown) [KHG26754, 3-((4-chlorophenyl)(ethoxy)methyl)azetidine hydrochloride] | 91
3 | COC(c1ccc(Cl)c(Cl)c1)C1CNC1.Cl (stereo not shown) [KHG26756, 3-((3,4-dichlorophenyl)(methoxy)methyl)azetidine hydrochloride] | 85

same assay, conditions: membrane from MDCK cells, 6 nM [3H]Nisoxetine

Row | SMILES | IC50 [nM]
4 | CCOC(c1ccc(Cl)cc1)C1CNC1.Cl (stereo not shown) [KHG26754, 3-((4-chlorophenyl)(ethoxy)methyl)azetidine hydrochloride] | 666
5 | COC(c1ccc(Cl)c(Cl)c1)C1CNC1.Cl (stereo not shown) [KHG26756, 3-((3,4-dichlorophenyl)(methoxy)methyl)azetidine hydrochloride] | 339

test system: not given; experiment: not given; details: not given

Row | SMILES | melting point [°C]
6 | Cl.OC(c1ccccc1)C1CNC1 (stereo not shown) | 223
7 | COC(c1ccccc1)C1CNC1.Cl (stereo not shown) | 228
8 | CCOC(c1ccccc1)C1CNC1.Cl (stereo not shown) | 205
9 | CCCOC(c1ccc(Cl)c(Cl)c1)C1CNC1.Cl (stereo not shown) | 151
10 | Cl.Fc1ccccc1OC(c1ccc(Cl)c(Cl)c1)C1CNC1 (stereo not shown) | 224
11 | Cl.Fc1cccc(OC(c2ccc(Cl)c(Cl)c2)C2CNC2)c1 (stereo not shown) | 218
12 | Cl.Fc1ccc(OC(c2ccc(Cl)c(Cl)c2)C2CNC2)cc1 (stereo not shown) | 210
13 | Cl.Clc1ccc(C(Oc2ccccc2Cl)C2CNC2)cc1Cl (stereo not shown) | 197
14 | Cl.Clc1cccc(OC(c2ccc(Cl)c(Cl)c2)C2CNC2)c1 (stereo not shown) | 169
15 | Cl.Clc1ccc(OC(c2ccc(Cl)c(Cl)c2)C2CNC2)cc1 (stereo not shown) | 201
16 | Cl.FC(F)(F)Oc1ccccc1OC(c1ccc(Cl)c(Cl)c1)C1CNC1 (stereo not shown) | 225
17 | Cl.FC(F)(F)Oc1cccc(OC(c2ccc(Cl)c(Cl)c2)C2CNC2)c1 (stereo not shown) | 208
18 | Cl.FC(F)(F)Oc1ccc(OC(c2ccc(Cl)c(Cl)c2)C2CNC2)cc1 (stereo not shown) | 217
19 | Cl.Fc1ccc(OC(c2ccc(Cl)c(Cl)c2)C2CNC2)cc1F (stereo not shown) | 240
20 | Cl.Clc1ccc(OC(c2ccc(Cl)c(Cl)c2)C2CNC2)cc1Cl (stereo not shown) | 208
21 | CCOC(c1ccc2ccccc2c1)C1CNC1.Cl (stereo not shown) | 205
22 | CCCOC(c1ccc2ccccc2c1)C1CNC1.Cl (stereo not shown) | 223
23 | Cl.c1ccc(OC(c2ccc3ccccc3c2)C2CNC2)cc1 (stereo not shown) | 218
24 | Cl.Fc1ccccc1OC(c1ccc2ccccc2c1)C1CNC1 (stereo not shown) | 211
25 | Cl.Fc1cccc(OC(c2ccc3ccccc3c2)C2CNC2)c1 (stereo not shown) | 216
26 | Cl.Fc1ccc(OC(c2ccc3ccccc3c2)C2CNC2)cc1 (stereo not shown) | 214
27 | Cc1ccccc1OC(c1ccc2ccccc2c1)C1CNC1.Cl (stereo not shown) | 213
28 | Cc1cccc(OC(c2ccc3ccccc3c2)C2CNC2)c1.Cl (stereo not shown) | 210
29 | Cc1ccc(OC(c2ccc3ccccc3c2)C2CNC2)cc1.Cl (stereo not shown) | 203
30 | Cl.Clc1ccccc1OC(c1ccc2ccccc2c1)C1CNC1 (stereo not shown) | 207
31 | Cl.Clc1cccc(OC(c2ccc3ccccc3c2)C2CNC2)c1 (stereo not shown) | 214

Row | SMILES | melting point [°C]
32 | Cl.Clc1ccc(OC(c2ccc3ccccc3c2)C2CNC2)cc1 (stereo not shown) | 211
33 | Cl.FC(F)(F)Oc1ccccc1OC(c1ccc2ccccc2c1)C1CNC1 (stereo not shown) | 228
34 | Cl.FC(F)(F)Oc1cccc(OC(c2ccc3ccccc3c2)C2CNC2)c1 (stereo not shown) | 217
35 | Cl.FC(F)(F)Oc1ccc(OC(c2ccc3ccccc3c2)C2CNC2)cc1 (stereo not shown) | 209
36 | Cl.Fc1ccc(OC(c2ccc3ccccc3c2)C2CNC2)cc1F (stereo not shown) | 212
37 | Cl.Clc1ccc(OC(c2ccc3ccccc3c2)C2CNC2)cc1Cl (stereo not shown) | 217
38 | CCOC(c1ccc(Cl)c(F)c1)C1CNC1.Cl (stereo not shown) | 215
39 | Cl.Fc1cc(C(Oc2ccccc2)C2CNC2)ccc1Cl (stereo not shown) | 201
40 | Cl.Fc1cc(C(Oc2ccccc2F)C2CNC2)ccc1Cl (stereo not shown) | 198
41 | Cl.Fc1cccc(OC(c2ccc(Cl)c(F)c2)C2CNC2)c1 (stereo not shown) | 217
42 | Cl.Fc1ccc(OC(c2ccc(Cl)c(F)c2)C2CNC2)cc1 (stereo not shown) | 218
43 | Cc1ccccc1OC(c1ccc(Cl)c(F)c1)C1CNC1.Cl (stereo not shown) | 205
44 | Cc1cccc(OC(c2ccc(Cl)c(F)c2)C2CNC2)c1.Cl (stereo not shown) | 203
45 | Cc1ccc(OC(c2ccc(Cl)c(F)c2)C2CNC2)cc1.Cl (stereo not shown) | 173
46 | Cl.Fc1cc(C(Oc2ccccc2Cl)C2CNC2)ccc1Cl (stereo not shown) | 220
47 | Cl.Fc1cc(C(Oc2cccc(Cl)c2)C2CNC2)ccc1Cl (stereo not shown) | 204
48 | Cl.Fc1cc(C(Oc2ccc(Cl)cc2)C2CNC2)ccc1Cl (stereo not shown) | 203
49 | Cl.Fc1cc(C(Oc2ccccc2OC(F)(F)F)C2CNC2)ccc1Cl (stereo not shown) | 166
50 | Cl.Fc1cc(C(Oc2cccc(OC(F)(F)F)c2)C2CNC2)ccc1Cl (stereo not shown) | 145
51 | Cl.Fc1cc(C(Oc2ccc(OC(F)(F)F)cc2)C2CNC2)ccc1Cl (stereo not shown) | 151
52 | Cl.Fc1ccc(OC(c2ccc(Cl)c(F)c2)C2CNC2)cc1F (stereo not shown) | 216
53 | Cl.Fc1cc(C(Oc2ccc(Cl)c(Cl)c2)C2CNC2)ccc1Cl (stereo not shown) | 192
54 | Cl.Fc1cc(C(OCc2ccccc2)C2CNC2)ccc1Cl (stereo not shown) | 191
55 | Cl.Fc1ccc(C(Oc2ccccc2)C2CNC2)cc1Cl (stereo not shown) | 208
56 | Cl.Fc1ccc(C(Oc2ccccc2F)C2CNC2)cc1Cl (stereo not shown) | 194
57 | Cl.Fc1cccc(OC(c2ccc(F)c(Cl)c2)C2CNC2)c1 (stereo not shown) | 209

Row | SMILES | melting point [°C]
58 | Cl.Fc1ccc(OC(c2ccc(F)c(Cl)c2)C2CNC2)cc1 (stereo not shown) | 211
59 | Cl.Fc1ccc(C(Oc2ccccc2Cl)C2CNC2)cc1Cl (stereo not shown) | 188
60 | Cl.Fc1ccc(C(Oc2cccc(Cl)c2)C2CNC2)cc1Cl (stereo not shown) | 205
61 | Cl.Fc1ccc(C(Oc2ccc(Cl)cc2)C2CNC2)cc1Cl (stereo not shown) | 218
62 | Cc1ccccc1OC(c1ccc(F)c(Cl)c1)C1CNC1.Cl (stereo not shown) | 209
63 | Cc1cccc(OC(c2ccc(F)c(Cl)c2)C2CNC2)c1.Cl (stereo not shown) | 151
64 | Cc1ccc(OC(c2ccc(F)c(Cl)c2)C2CNC2)cc1.Cl (stereo not shown) | 183
65 | Cl.Fc1ccc(C(Oc2ccccc2OC(F)(F)F)C2CNC2)cc1Cl (stereo not shown) | 157
66 | Cl.Fc1ccc(C(Oc2cccc(OC(F)(F)F)c2)C2CNC2)cc1Cl (stereo not shown) | 157
67 | Cl.Fc1ccc(OC(c2ccc(F)c(Cl)c2)C2CNC2)cc1F (stereo not shown) | 187
68 | Cl.Fc1ccc(C(Oc2ccc(Cl)c(Cl)c2)C2CNC2)cc1Cl (stereo not shown) | 186
69 | CCCOC(c1ccc(F)c(F)c1)C1CNC1.Cl (stereo not shown) | 116
70 | Cl.Fc1ccc(C(Oc2ccccc2F)C2CNC2)cc1F (stereo not shown) | 187
71 | Cl.Fc1ccc(OC(c2ccc(F)c(F)c2)C2CNC2)cc1 (stereo not shown) | 188
72 | Cl.Fc1ccc(C(Oc2ccccc2Cl)C2CNC2)cc1F (stereo not shown) | 174
73 | Cl.Fc1ccc(C(Oc2cccc(Cl)c2)C2CNC2)cc1F (stereo not shown) | 152
74 | Cc1ccccc1OC(c1ccc(F)c(F)c1)C1CNC1.Cl (stereo not shown) | 151
75 | Cc1cccc(OC(c2ccc(F)c(F)c2)C2CNC2)c1.Cl (stereo not shown) | 189
76 | Cc1ccc(OC(c2ccc(F)c(F)c2)C2CNC2)cc1.Cl (stereo not shown) | 159
77 | Cl.c1ccc(C(Oc2ccc3ccccc3c2)C2CNC2)cc1 (stereo not shown) | 183
78 | Clc1ccc(C(Oc2ccccc2)C2CNC2)cc1Cl (stereo not shown) (as salt: hydrochloride) [KHG26767, 3-((3,4-dichlorophenyl)(phenoxy)methyl)azetidine hydrochloride] | 175
79 | COC(c1ccc(Cl)cc1)C1CNC1.Cl (stereo not shown) [KHG26753, 3-((4-chlorophenyl)(methoxy)methyl)azetidine hydrochloride] | 281
80 | CCOC(c1ccc(Cl)cc1)C1CNC1.Cl (stereo not shown) [KHG26754, 3-((4-chlorophenyl)(ethoxy)methyl)azetidine hydrochloride] | 190
81 | COC(c1ccc(Cl)c(Cl)c1)C1CNC1.Cl (stereo not shown) [KHG26756, 3-((3,4-dichlorophenyl)(methoxy)methyl)azetidine hydrochloride] | 109

biological target: human dopamine transporter (Homo sapiens (Human), UniProt Q01959); experiment: hDAT binding assay ([3H]WIN35,428); details: membrane from CHO-K1 cells, 8 nM [3H]WIN35,428;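 further: displacement of the radioligand from the transporter membranes, incubated 120 min at 4 °C in Tris-HCl buffer with NaCl, pH 7.4, measured by filter-bound radioactivity counting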
Sequence (Q01959 whole entry): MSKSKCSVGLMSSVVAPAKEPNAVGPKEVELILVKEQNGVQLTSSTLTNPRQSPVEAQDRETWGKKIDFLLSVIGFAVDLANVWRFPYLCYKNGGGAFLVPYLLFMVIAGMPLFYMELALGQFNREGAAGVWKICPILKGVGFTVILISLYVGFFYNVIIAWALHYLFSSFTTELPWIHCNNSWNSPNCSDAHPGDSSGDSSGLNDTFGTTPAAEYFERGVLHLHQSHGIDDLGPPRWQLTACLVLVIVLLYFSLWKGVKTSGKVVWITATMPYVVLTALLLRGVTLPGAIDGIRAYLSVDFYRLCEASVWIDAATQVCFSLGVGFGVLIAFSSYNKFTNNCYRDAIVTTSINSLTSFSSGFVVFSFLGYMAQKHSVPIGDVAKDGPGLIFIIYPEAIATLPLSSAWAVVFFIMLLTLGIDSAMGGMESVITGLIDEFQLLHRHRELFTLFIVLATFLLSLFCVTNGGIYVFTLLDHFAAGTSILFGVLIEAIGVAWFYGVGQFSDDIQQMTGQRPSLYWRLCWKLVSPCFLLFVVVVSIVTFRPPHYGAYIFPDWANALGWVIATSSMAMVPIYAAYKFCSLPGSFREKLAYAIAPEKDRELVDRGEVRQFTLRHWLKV

Row | SMILES | IC50 [nM]
82 | CCOC(c1ccc(Cl)cc1)C1CNC1.Cl (stereo not shown) [KHG26754, 3-((4-chlorophenyl)(ethoxy)methyl)azetidine hydrochloride] | 1950

same assay, conditions: read-out: hDAT binding assay %-inhibition (10 uM)

Row | SMILES | inhibition at 10 µM [%]
83 | COC(c1ccc(Cl)cc1)C1CNC1.Cl (stereo not shown) [KHG26753, 3-((4-chlorophenyl)(methoxy)methyl)azetidine hydrochloride] | 58
84 | CCOC(c1ccc(Cl)cc1)C1CNC1.Cl (stereo not shown) [KHG26754, 3-((4-chlorophenyl)(ethoxy)methyl)azetidine hydrochloride] | 76
85 | COC(c1ccc(Cl)c(Cl)c1)C1CNC1.Cl (stereo not shown) [KHG26756, 3-((3,4-dichlorophenyl)(methoxy)methyl)azetidine hydrochloride] | 54

biological target: human serotonin transporter (Homo sapiens (Human), UniProt P31645); experiment: hSERT binding assay ([3H]Imipramine); details: 10 uM; membrane from HEK293 cells; read-out: hSERT binding assay %-inhibition (10 uM);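 further: displacement of radiolabeled imipramine from the transporter, incubated 30 min at 27 °C in Tris-HCl pH 7.4 with NaCl and KCl, bound radioactivity counted after filtration, nonspecific binding defined with 200 uM imipramine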
Sequence (P31645 whole entry): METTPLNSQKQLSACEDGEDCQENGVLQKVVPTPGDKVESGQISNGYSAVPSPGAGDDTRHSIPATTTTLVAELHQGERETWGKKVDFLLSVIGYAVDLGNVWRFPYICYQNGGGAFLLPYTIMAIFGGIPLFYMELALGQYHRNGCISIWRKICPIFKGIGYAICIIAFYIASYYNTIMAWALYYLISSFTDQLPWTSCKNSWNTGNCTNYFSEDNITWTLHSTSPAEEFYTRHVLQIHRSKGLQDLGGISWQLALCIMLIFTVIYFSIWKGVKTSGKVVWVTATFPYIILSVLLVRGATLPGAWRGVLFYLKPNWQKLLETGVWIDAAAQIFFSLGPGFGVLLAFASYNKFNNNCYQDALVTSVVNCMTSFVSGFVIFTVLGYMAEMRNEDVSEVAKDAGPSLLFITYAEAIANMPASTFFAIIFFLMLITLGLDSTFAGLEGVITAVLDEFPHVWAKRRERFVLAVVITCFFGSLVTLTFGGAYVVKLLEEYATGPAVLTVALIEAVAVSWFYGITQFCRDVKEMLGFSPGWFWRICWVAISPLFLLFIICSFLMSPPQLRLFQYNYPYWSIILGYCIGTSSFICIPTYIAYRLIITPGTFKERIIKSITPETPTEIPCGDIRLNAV

Row | SMILES | inhibition at 10 µM [%]
86 | COC(c1ccc(Cl)cc1)C1CNC1.Cl (stereo not shown) [KHG26753, 3-((4-chlorophenyl)(methoxy)methyl)azetidine hydrochloride] | 95
87 | CCOC(c1ccc(Cl)cc1)C1CNC1.Cl (stereo not shown) [KHG26754, 3-((4-chlorophenyl)(ethoxy)methyl)azetidine hydrochloride] | 95
88 | COC(c1ccc(Cl)c(Cl)c1)C1CNC1.Cl (stereo not shown) [KHG26756, 3-((3,4-dichlorophenyl)(methoxy)methyl)azetidine hydrochloride] | 79

same assay, conditions: membrane from HEK293 cells, 2 nM [3H]Imipramine

Row | SMILES | IC50 [nM]
89 | COC(c1ccc(Cl)cc1)C1CNC1.Cl (stereo not shown) [KHG26753, 3-((4-chlorophenyl)(methoxy)methyl)azetidine hydrochloride] | 42.9
90 | CCOC(c1ccc(Cl)cc1)C1CNC1.Cl (stereo not shown) [KHG26754, 3-((4-chlorophenyl)(ethoxy)methyl)azetidine hydrochloride] | 120
91 | COC(c1ccc(Cl)c(Cl)c1)C1CNC1.Cl (stereo not shown) [KHG26756, 3-((3,4-dichlorophenyl)(methoxy)methyl)azetidine hydrochloride] | 271
